In ChEMBL document CHEMBL3758108, “Synthesis and antiproliferative evaluation of novel 1,2,4-triazole derivatives incorporating benzisoselenazolone scaffold” (Bioorg Med Chem Lett, 2016):

Key:
[1] = Antiproliferative activity against human SMMC7721 cells after 48 hrs by CCK8 assay; type: functional, cell-based; settings: SMMC-7721, 48 h
HeLa = assay: Antiproliferative activity against human HeLa cells after 48 hrs by CCK8 assay; type: functional, cell-based
A549 = assay: Antiproliferative activity against human A549 cells after 48 hrs by CCK8 assay; type: functional, cell-based; settings: A549, 48 h
L929 = assay: Antiproliferative activity against mouse L929 cells after 48 hrs by CCK8 assay; type: cell-based; settings: L929, 48 h

Q: Which results are given for `CCCCCCSc1n[nH]c(-n2[se]c3ccccc3c2=O)n1`?
A: IC50 [1]: 22.4 µM; IC50 (HeLa): 35.9 µM; IC50 (A549): 20.3 µM; IC50 (L929): 39.3 µM

Q: With `CC(C)Sc1n[nH]c(-n2[se]c3ccccc3c2=O)n1` as the molecule, how does the IC50 [1] read?
A: 6.01 µM

Q: What about the IC50 (HeLa) of the same molecule?
A: 34.6 µM

Q: What about the IC50 (A549) of the same molecule?
A: 36.6 µM

Q: What about the IC50 (L929) of the same molecule?
A: 37.1 µM

Q: For `Cc1ccccc1CSc1n[nH]c(-n2[se]c3ccccc3c2=O)n1`, which IC50 [1] is on record?
A: 36.2 µM

Q: What about the IC50 (HeLa) of the same molecule?
A: 6.13 µM

Q: And the IC50 (A549)?
A: 9.72 µM

Q: And the IC50 (L929)?
A: 15.6 µM

Q: For `O=c1c2ccccc2[se]n1-c1nc(SCc2ccc(Cl)cc2)n[nH]1`, which IC50 [1] is on record?
A: 33.9 µM

Q: What about the IC50 (HeLa) of the same molecule?
A: 40.9 µM

Q: What about the IC50 (A549) of the same molecule?
A: 42.1 µM

Q: What about the IC50 (L929) of the same molecule?
A: 39.5 µM

Q: Which IC50 [1] does the source give for `CCCCSc1n[nH]c(-n2[se]c3ccccc3c2=O)n1` here?
A: 16.8 µM

Q: What about the IC50 (HeLa) of the same molecule?
A: 32.9 µM

Q: And the IC50 (A549)?
A: 12.5 µM

Q: What about the IC50 (L929) of the same molecule?
A: 30.4 µM

Q: For `CCSc1n[nH]c(-n2[se]c3ccccc3c2=O)n1`, which IC50 [1] is on record?
A: 10 µM

Q: What about the IC50 (HeLa) of the same molecule?
A: 14.1 µM

Q: And the IC50 (A549)?
A: 39.6 µM

Q: What about the IC50 (L929) of the same molecule?
A: 35.2 µM

Q: With `O=c1c2ccccc2[se]n1-c1nc(SCc2ccccc2)n[nH]1` as the molecule, how does the IC50 [1] read?
A: 32 µM

Q: What about the IC50 (HeLa) of the same molecule?
A: > 50 µM

Q: What about the IC50 (A549) of the same molecule?
A: > 50 µM

Q: What about the IC50 (L929) of the same molecule?
A: > 50 µM

Q: What does the source list for `CCCCCSc1n[nH]c(-n2[se]c3ccccc3c2=O)n1`?
A: IC50 [1]: 31.4 µM; IC50 (HeLa): 30.3 µM; IC50 (A549): 21.1 µM; IC50 (L929): 33.5 µM

Q: Which IC50 [1] does the source give for `CCCSc1n[nH]c(-n2[se]c3ccccc3c2=O)n1` here?
A: 6.02 µM

Q: What about the IC50 (HeLa) of the same molecule?
A: 30.4 µM

Q: And the IC50 (A549)?
A: 45.5 µM

Q: And the IC50 (L929)?
A: 31.8 µM

Q: With `Cc1ccc(CSc2n[nH]c(-n3[se]c4ccccc4c3=O)n2)cc1` as the molecule, how does the IC50 [1] read?
A: > 50 µM

Q: And the IC50 (HeLa)?
A: 34.8 µM

Q: And the IC50 (A549)?
A: > 50 µM

Q: And the IC50 (L929)?
A: > 50 µM

Q: What does the source list for `Cc1cccc(CSc2n[nH]c(-n3[se]c4ccccc4c3=O)n2)c1`?
A: IC50 [1]: 9.04 µM; IC50 (HeLa): 42.6 µM; IC50 (A549): 12.4 µM; IC50 (L929): > 50 µM

Q: With `O=c1c2ccccc2[se]n1-c1nc(SCc2ccc(F)cc2)n[nH]1` as the molecule, how does the IC50 [1] read?
A: 46.1 µM

Q: And the IC50 (HeLa)?
A: > 50 µM

Q: What about the IC50 (A549) of the same molecule?
A: 36.4 µM

Q: What about the IC50 (L929) of the same molecule?
A: > 50 µM

Q: Which results are given for `CC(C)CSc1n[nH]c(-n2[se]c3ccccc3c2=O)n1`?
A: IC50 [1]: 35 µM; IC50 (HeLa): 34.9 µM; IC50 (A549): 37.8 µM; IC50 (L929): 33.4 µM

Q: What does the source list for `O=c1c2ccccc2[se]n1-c1nc(SCc2ccc([N+](=O)[O-])cc2)n[nH]1`?
A: IC50 [1]: 8.91 µM; IC50 (HeLa): 3.94 µM; IC50 (A549): 9.14 µM; IC50 (L929): 7.43 µM

Q: For `O=c1c2ccccc2[se]n1CCn1[se]c2ccccc2c1=O` [ETHASELEN], which IC50 [1] is on record?
A: 10.7 µM

Q: And the IC50 (HeLa)?
A: 15.9 µM

Q: What about the IC50 (A549) of the same molecule?
A: 3.26 µM

Q: What about the IC50 (L929) of the same molecule?
A: > 50 µM

Q: What does the source list for `O=c1[nH]cc(F)c(=O)[nH]1` [FLUOROURACIL]?
A: IC50 (HeLa): 17.2 µM; IC50 (L929): 2.98 µM
